# From US20260191817A1, “FIBROBLAST MODULATORS IN STROMA-RICH TUMORS” (UNIVERSITEIT GENT, priority 2022, published 2026)
# Tests used:
# 4T1-Luc aggregates = test: Chick heart invasion (CHI) assay with 4T1-Luc aggregates; assay type: cell-based, mouse; conditions: 1 μM, in duplo
# Method: Chick heart invasion assays were performed as described earlier (Bracke et al. 2014). Precultured heart fragments of 9-day-old chicken embryos were confronted with MCF-7/6 aggregates on top of a semi-solid agar at 37° C. overnight, after which the confronting pairs were cultured in suspension for 8 days at 37° C., 10% CO2 in presence or absence of a test compound (in duplo). This procedure can also be performed with aggregates of 4T1-Luc cells, for which the suspension culture of the confronting pairs is performed for 3.5 days. All compounds were evaluated at 1 μM and 100 nM; depending on the outcome higher or lower concentrations were subsequently evaluated. […] Sections of the confrontation cultures were stained with hematoxylin-eosin are blinded and scored by a trained person (Bracke et al., 2014).
# In the chick heart invasion assay cancer cells are confronted with a fragment of normal tissue, so as not to neglect the contribution of the host tissue in the micro-ecosystem that governs tumor behavior. […] After eight days for MCF-7/6, or another period depending on the cell type, the interaction between the cancer cells and the PHF is evaluated histologically and classified along a 5-grades subjective scale (Bracke et al. 2014). […] Compounds that inhibit invasion of confronting cancer cells i.e. from III/IV to 0/I/II, are determined as anti-invasive. […]
# [1] = tested on: 4T1 primary tumors and target organs for metastasis; test: 4T1-based intraductal model: histology and immunohistological stainings; assay type: in vivo, BALB/c mice; conditions: for CD163 staining (tumor-associated macrophages) / CD11b staining (amounts of myeloid cells) / FAP-α staining / Ly6G staining: primary tumor tissue
# Method: Isolated tissue of primary tumors, axillary lymph nodes, lungs and livers was fixed in buffered 3.5% formaldehyde for 24 h at room temperature (RT) and embedded in paraffin wax. Sections of 5 μm were deparaffinized, hydrated and stained with hematoxylin and eosin (H&E). To allow analysis, sections were dehydrated and mounted.
# For Masson's trichrome staining, 3-5 μm thick sections were deparaffinized, hydrated and incubated ON in Bouin's solution to improve staining quality. The following day, slides were washed in distilled H2O (dH2O) and subsequently submerged 3 times in Biebrich scarlet-acid fuchsin solution, washed again in dH2O and incubated for 20 min in phosphomolybdic-phosphotungstic acid solution. Following the incubation in phosphomolybdic-phosphotungstic acid solution, slides were not rinsed, but immediately incubated in aniline blue solution for 8 min. After a final washing step with dH2O, slides were incubated in 1% acetic acid solution for 8 min. Sections were then quickly dehydrated through 94% ethyl alcohol, absolute alcohol to remove Biebrich scarlet-acid fuchsin staining and xylene to clear the slide before mounting with Tissue-Tek glass mounting medium. The staining visualizes collagen in blue, nuclei in dark red, cytoplasm in red/pink. Quantification of positive staining was established using color deconvolution (for Masson's trichrome staining) followed by automatic counting in ImageJ.
# For immunohistochemical staining, antigen retrieval was performed on 3-5 μm thick deparaffinized sections with citrate buffer (10 mM tri-sodium citrate (Santa Cruz Biotechnology, Heidelberg, Germany) for α-SMA, CD11 b, Ly6G, and CD163), pH 6 or with Tris-EDTA buffer [pH 9, 10 mM Tris, 1 mM EDTA (Thermo Fisher Scientific) for PDPN and FAP-α) at 95° C. for 30 min using a pressurized Decloaking Chamber NxGen (Biocare Medical, CA, USA). The slides were cooled down to RT for 30 min and subsequently incubated on an orbital shaker at 20 rpm in a closed microscope box with tris-buffered saline (TBS, Biocare Medical)-wetted tissue paper for all blocking, rinsing (between every incubation step with TBS, 3 times for 2 min at RT) and staining steps. To block endogenous peroxidase activity, slides were first treated with 3% H2O2 in methanol for 10 min. To block non-specific binding sites, the slides were subsequently treated with serum-free protein block (Dako, Heverlee, Belgium) for 10 min.
# The slides were then stained with primary antibodies diluted in Antibody Diluent (Dako) for 1 h at RT followed by incubation with secondary antibody for 30 min at RT. The used primary antibodies and dilutions were: anti-α-SMA (1:2000, clone EPR5368, Abcam, Cambridge, UK), anti-PDPN (1:100, clone PMab-1, Abcam), anti-FAP-α (1:100, polyclonal, Abcam), anti-CD11b (1:4000, clone EPR1344, Abcam), anti-Ly6G (1:1000, clone 1A8, Biolegend, CA, USA), anti-CD163 (1:500, clone EPR19518, Abcam). The used secondary antibodies were Rat-on-Mouse HRP-Polymer (Biocare Medical) for PDPN and Ly6G, and ready to-use Dako EnVision+ Rabbit for α-SMA, FAP-α, CD11b, and CD163. For visualization of HRP-positive staining, slides were treated with a 3,3′-diaminobenzidine (DAB)-containing buffer (Dako) for 10 min at RT. Counterstaining with hematoxylin was applied for 5 min at RT, followed by dehydration and mounting of the slides with Tissue-Tek glass mounting medium. Quantification of positive staining was established using color deconvolution (for DAB and hematoxylin counterstaining) followed by automatic counting in ImageJ.
# [2] = compared to DMSO treatment, data not shown
# [3] = primary tumor, compared to DMSO
# [4] = primary tumors, compared to DMSO
smiles,measurement,setting,value
"COc1cc(C(=O)/C=C/c2ccc(F)cc2)cc(OC)c1OC [Compound A1, 3-(4-Fluorophenyl)-1-(3,4,5-trimethoxyphenyl)prop2-en-1-one]",Histological invasion grade,4T1-Luc aggregates,I/II-III
same,size of lung and liver metastases (H&E),[1]; [2],Smaller
same,Masson's trichrome staining (collagen deposition),"[1]; liver tissue, compared to DMSO",significant reduction
same,PDPN staining,"[1]; liver tissue, compared to DMSO",significantly decreased
same,α-SMA staining (CAFs),"[1]; liver tissue, compared to DMSO",significant reduction
same,CD163 staining (tumor-associated macrophages),[1],significantly decreased
same,CD11b staining (amounts of myeloid cells),[1]; compared to DMSO,significantly decreased
same,FAP-α staining,[1]; compared to DMSO,significantly decreased
same,Ly6G staining,[1]; compared to DMSO,reduction
same,Masson's trichrome staining (collagen deposition),[1]; [3],significantly decreased
same,PDPN staining,"[1]; primary tumors, P<0.001",significantly decreased
same,α-SMA staining (amount of CAFs),[1]; [4],significantly decreased
"COc1cc2oc(-c3ccc(F)cc3)cc(=O)c2c(OC)c1OC [Compound B1, 2-(4-Fluorophenyl)-5,6,7-trimethoxy-4H-chromen-4-one]",Histological invasion grade,4T1-Luc aggregates,II/II
same,size of axillary lymph node metastases (H&E),[1]; [2],smaller
same,Masson's trichrome staining (collagen deposition),"[1]; liver tissue, compared to DMSO",significant reduction
same,PDPN staining,"[1]; liver tissue, compared to DMSO",significantly decreased
same,α-SMA staining (CAFs),"[1]; liver tissue, compared to DMSO",significant reduction
same,CD163 staining (tumor-associated macrophages),[1],significantly decreased
same,CD11b staining (amounts of myeloid cells),[1]; compared to DMSO,significantly decreased
same,FAP-α staining,[1]; compared to DMSO,significantly decreased
same,Ly6G staining,[1]; compared to DMSO,reduction
same,Masson's trichrome staining (collagen deposition),[1]; [3],significantly decreased
same,PDPN staining,"[1]; primary tumors, P<0.001",significantly decreased
same,α-SMA staining (amount of CAFs),[1]; [4],significantly decreased
